This passage reports Kd results from PMC8385535 (Frontiers in Pharmacology, 2021).

This assay has as its target T1, IGPD (imidazole glycerol phosphate dehydratase) (Staphylococcus xylosus, UniProt A0A5R9B0J7).
T1 construct: gene hisB; recombinant, pET30a-hisB, E. coli host; His tag implied (coupled to Octet NTA sensor)
T1 sequence (A0A5R9B0J7 1-192): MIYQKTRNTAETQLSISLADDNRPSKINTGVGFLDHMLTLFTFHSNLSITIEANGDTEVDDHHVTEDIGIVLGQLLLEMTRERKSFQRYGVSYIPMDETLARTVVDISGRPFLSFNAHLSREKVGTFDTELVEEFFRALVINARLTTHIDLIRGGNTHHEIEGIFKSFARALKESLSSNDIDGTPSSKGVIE
Put plainly: bio-layer interferometry (Octet, IGPD on NTA tip). In kind it is binding. (Biolayer interferometry detects binding as a change in optical thickness at a sensor tip.)

Turning to `C[C@@H]1O[C@@H](OC[C@H]2O[C@@H](Oc3c(-c4ccc(O)c(O)c4)oc4cc(O)cc(O)c4c3=O)[C@H](O)[C@@H](O)[C@@H]2O)[C@H](O)[C@H](O)[C@H]1O` [rutin], the Kd amounted to 1000 µM. That is a millimolar value.

Broadly, the Kd is the equilibrium constant for the complex coming apart. A lower Kd goes with higher affinity.
